Data as given in paper PMC7170901, “Design and efficient synthesis of pyrazoline and isoxazole bridged indole C-glycoside hybrids as potential anticancer agents” (Scientific Reports, 2020).

Tests used:
Type in all cases: cell-based
MDA-MB-453 cells = experiment: MTT cell viability assay in MDA-MB-453 cells; details: Homo sapiens, read-out: Cell Viability (%) ± SD
Source text: (§1) MDA-MB-231 represents a specific subtype, known as the triple negative breast cancer (TNBC). […] We also included normal mammary epithelial MCF-10A cells in our experiments to confirm if the growth-inhibitory activities of the selected compounds are truly cancer cell-specific. […] Furthermore, none of these compounds did have any growth inhibitory activity against normal breast epithelial cell (MCF-10A). The IC50 values for these compounds against MDA-MB-231 cells (Fig. 2) are also included in Table 4 for comparison. Cell viability assay was performed as per standard protocols. After 72 h of cell incubation in the presence or absence of each compound, cell viability was evaluated by using MTT ((3-(4,5-dimethylthiazol-2-yl)-2,5-diphenyltetrazolium bromide)) (Himedia Pvt. Ltd, India). In brief, this is a homogeneous, colorimetric method for determining the number of viable cells in proliferation, cytotoxicity or chemosensitivity assays. MTT is bio reduced by cells into a formazan product that is […]. After 72 h of compound treatment, the medium was removed and 100 μL of MTT (0.5 mg ml^−1 in media) was added to the cells and kept in the dark for 3 h at 37 °C in the CO2 incubator and the formazan formed was dissolved in 100 μL DMSO (Dimethyl Sulfoxide). The absorbance of the formazan product at 595 nm was measured directly from 96-well assay plates without additional processing using a multimode plate reader (Bio-Rad) (iMark, India), as absorbance is directly proportional to the number of viable cells in culture. The percentage of viable cells in each group is determined with respect to the untreated control cells.

[1] = system: MDA-MB-231 (human breast cancer) cell line; experiment: MTT cell viability assay in MDA-MB-231 cells; details: Homo sapiens, read-out: Cell Viability (%) ± SD; for viability at 10 µM / viability at 25 µM / viability at 50 µM: MDA-MB-231, 72 h, 72 h, MTT; for viability at 10 µM: MDA-MB-231, 10 µM; for viability at 25 µM: MDA-MB-231, 25 µM; for viability at 50 µM: MDA-MB-231, 50 µM
Procedure: IC50 values were determined by plotting values of percent cell viability against concentration of each of these compounds. […] The experiments were performed in triplicates, n = 3 and ± SE value was calculated for each data point.
The human breast cancer cell line MDA-MB-231 were cultured in Dulbecco’s Modified Eagle’s Medium (DMEM) (Gibco, St. Louis, USA) supplemented with 10% heat inactivated FBS (Fetal Bovine Serum, Gibco, USA) and 1% penicillin-streptomycin (Gibco Canada) in humidified CO2 incubator at 37 °C. The cells were maintained as a monolayer in 100 mm culture plate. The cells used for each experiment were of less than 8 passage number. Sub culturing of cells was performed every third day, followed by trypsin EDTA treatment.
Cell viability assay was performed as per standard protocols. […] Ltd, India). In brief, this is a homogeneous, colorimetric method for determining the number of viable cells in proliferation, cytotoxicity or chemosensitivity assays. MTT is bio reduced by cells into a formazan product that is soluble in the tissue culture medium. […] The absorbance of the formazan product at 595 nm was measured directly from 96-well assay plates without additional processing using a multimode plate reader (Bio-Rad) (iMark, India), as absorbance is directly proportional to the number of viable cells in culture. The percentage of viable cells in each group is determined with respect to the untreated control cells.

[2] = MTT cell viability assay in normal MCF-10A cells; details: human, MCF-10A normal mammary epithelial cells, read-out: Cell Viability (%) ± SD
Source text: as §1

[3] = system: MCF-7 breast cancer cells; experiment: MTT cell viability assay in MCF-7 cells; details: Homo sapiens, MCF7, read-out: Cell Viability (%) ± SD

| SMILES | viability at 10 µM [1] [%] | viability at 25 µM [1] [%] | viability at 50 µM [1] [%] | also measured |
| --- | --- | --- | --- | --- |
| O=C(/C=C/c1c[nH]c2ccc([N+](=O)[O-])cc12)C[C@@H]1O[C@H](CO)[C@H](O)[C@H](O)[C@H]1O [Compound 14, (E)-4-(5-nitro-1H-indol-3-yl)-1-((2S,3R,4R,5R,6R)-3,4,5-trihydroxy-6-(hydroxymethyl)tetrahydro-2H-pyran-2-yl)but-3-en-2-one] | 73.6 ± 11.8 | 59 ± 12.5 | 60.6 ± 5.61 | viability at 1 µM (MDA-MB-453 cells; MDA-MB-453, 1 µM): 80.8 ± 3.2%; viability at 10 µM (MDA-MB-453 cells; MDA-MB-453, 10 µM): 82.2 ± 11.5%; viability at 25 µM (MDA-MB-453 cells; MDA-MB-453, 25 µM): 65.3 ± 5.8%; viability at 72 h, 25 µM ([2]; 25 µM): 86.8 ± 2.8%; viability at 72 h, 50 µM ([2]; 50 µM): 84.6 ± 0.7%; viability at 72 h, 100 µM ([2]; 100 µM): 80 ± 1.5%; viability at 1 µM ([3]; MCF-7, 1 µM): 100 ± 4.5%; viability at 10 µM ([3]; MCF-7, 10 µM): 69.8 ± 1.8%; viability at 25 µM ([3]; MCF-7, 25 µM): 66.8 ± 3% |
| OC[C@H]1O[C@@H](CC2=NNC(c3c[nH]c4ccc(Br)cc34)C2)[C@H](O)[C@@H](O)[C@H]1O (stereo partly shown) [Compound 27, (2 S,3 R,4 R,5 R,6 R)-2-((5-(5-bromo-1H-indol-3-yl)-4,5-dihydro-1H-pyrazol-3-yl)methyl)-6-(hydroxymethyl)tetrahydro-2H-pyran-3,4,5-triol] | 90 ± 7.7 | 90.8 ± 7.09 | 97.7 ± 10.1 |  |
| OC[C@H]1O[C@@H](CC2=NNC(c3c[nH]c4ccc(Cl)cc34)C2)[C@H](O)[C@@H](O)[C@@H]1O (stereo partly shown) [Compound 24, (2 S,3 R,4 R,5 S,6 R)-2-((5-(5-chloro-1H-indol-3-yl)-4,5-dihydro-1H-pyrazol-3-yl)methyl)-6-(hydroxymethyl)tetrahydro-2H-pyran-3,4,5-triol] | 82.2 ± 3.5 | 77.5 ± 8.96 | 77.7 ± 2.56 |  |
| OC[C@H]1O[C@@H](CC2=NNC(c3c[nH]c4ccc(Cl)cc34)C2)[C@@H](O)[C@@H](O)[C@@H]1O (stereo partly shown) [Compound 32, (2 S,3 S,4 R,5 S,6 R)-2-((5-(5-chloro-1H-indol-3-yl)-4,5-dihydro-1H-pyrazol-3-yl)methyl)-6-(hydroxymethyl)tetrahydro-2H-pyran-3,4,5-triol] | 74.6 ± 4.7 | 78.5 ± 4.44 | 66.5 ± 7.27 |  |
| OC[C@H]1O[C@@H](CC2=NNC(c3c[nH]c4ccccc34)C2)[C@H](O)[C@@H](O)[C@@H]1O (stereo partly drawn) [Compound 21, (2S,3R,4R,5S,6R)-2-((5-(1H-indol-3-yl)-4,5-dihydro-1H-pyrazol-3-yl)methyl)-6-(hydroxy-methyl)tetrahydro-2H-pyran-3,4,5-triol] | 73.5 ± 2.43 | 76.8 ± 2.43 | 75 ± 2.62 |  |
| O=C(/C=C/c1c[nH]c2ccc([N+](=O)[O-])cc12)C[C@@H]1O[C@H](CO)[C@@H](O)[C@H](O)[C@H]1O [Compound 18, (E)-4-(5-nitro-1H-indol-3-yl)-1-((2S,3R,4R,5S,6R)-3,4,5-trihydroxy-6-(hydroxylmethyl)tetrahydro-2H-pyran-2-yl) but-3-en-2-one] | 71.7 ± 28.4 | 78.5 ± 6.73 | 69.8 ± 20.4 |  |
| OC[C@H]1O[C@@H](CC2=NNC(c3c[nH]c4ccc(Br)cc34)C2)[C@H](O)[C@@H](O)[C@@H]1O (stereo partly shown) [Compound 23, (2 S,3 R,4 R,5 S,6 R)-2-((5-(5-bromo-1H-indol-3-yl)-4,5-dihydro-1H-pyrazol-3-yl)methyl)-6-(hydroxymethyl)tetrahydro-2H-pyran-3,4,5-triol] | 105 ± 11.3 | 88.8 ± 2.22 | 81.5 ± 5.45 |  |
| O=[N+]([O-])c1ccc2[nH]cc(-c3cc(C[C@@H]4O[C@H](CO)[C@H](O)[C@H](O)[C@H]4O)no3)c2c1 [Compound 38, (2 R,3 R,4 R,5 R,6 S)-2-(hydroxymethyl)-6-((5-(5-nitro-1H-indol-3-yl)isoxazol-3-yl)methyl) tetrahydro-2H-pyran-3,4,5-triol] | 99.1 ± 5.63 | 94.5 ± 3.67 | 94.9 ± 4.49 |  |
| OC[C@H]1O[C@@H](Cc2cc(-c3c[nH]c4ccc(Cl)cc34)on2)[C@@H](O)[C@@H](O)[C@@H]1O [Compound 44, (2 S,3 S,4 R,5 S,6 R)-2-((5-(5-chloro-1H-indol-3-yl)isoxazol-3-yl)methyl)-6-(hydroxymethyl) tetrahydro-2H-pyran-3,4,5-triol] | 83.9 ± 4.08 | 82.9 ± 5.28 | 81.7 ± 3.45 |  |
| COCCn1c2c([n+](Cc3cnccn3)c1C)C(=O)c1ccccc1C2=O [YM155, reference compound] |  |  |  | viability at 0.02 µM (MDA-MB-453 cells; MDA-MB-453, positive control at 20 nM): 33.2 ± 1.5%; viability at 0.02 µM ([1]; MDA-MB-231, MDA-MB-231, positive control at 20 nM): 27.4 ± 4.93%; viability at 72 h, 0.02 µM ([2]; positive control at 20 nM): 48.2 ± 1.6%; viability at 0.02 µM ([3]; MCF-7, positive control at 20 nM): 37.2 ± 1.7% |
| O=C(/C=C/c1c[nH]c2ccc(Br)cc12)C[C@@H]1O[C@H](CO)[C@H](O)[C@H](O)[C@H]1O [Compound 15, (E)-4-(5-bromo-1H-indol-3-yl)-1-((2S,3R,4R,5R,6R)-3,4,5-trihydroxy-6-(hydroxymethyl)tetrahydro-2H-pyran-2-yl)but-3-en-2-one] | 125 ± 3.51 | 113 ± 23.9 | 67.5 ± 17.7 |  |
| OC[C@H]1O[C@@H](Cc2cc(-c3c[nH]c4ccc(Cl)cc34)on2)[C@H](O)[C@@H](O)[C@H]1O [Compound 40, (2 S,3 R,4 R,5 R,6 R)-2-((5-(5-chloro-1H-indol-3-yl)isoxazol-3-yl)methyl)-6-(hydroxymethyl) tetrahydro-2H-pyran-3,4,5-triol] | 93.7 ± 2.68 | 96 ± 1.81 | 87.9 ± 4.71 |  |
